Source: patent US20090156674A1, “Valnemulin Salts with Organic Acids” (priority 2005, published 2009)
Structures can show the parent of a compound that is named as a salt.

Assays:
[1] = Stability of valnemulin acid addition salts in the pelleting procedure for animal feed; format: physicochemical; conditions: pelleting at 75° C.; wheat-based animal feed; 100 ppm valnemulin in the feed
Method: In order to test the stability of the valnemulin acid addition salts in animal feed, the calculated amount of the acid addition salt (corresponding to a target dose of 100 ppm) is added to ca. 4 kg of wheat-based animal feed and mixed in a high-speed laboratory mixer for 60 seconds to form a first premix (PM1). The ca. 4 kg of premix PM1 is then transferred to a horizontal mixer and mixed with 21 kg of the same feed for a further 6 minutes to form a further premix (PM2). The ca. 25 kg of premix PM2 is transferred to a vertical mixer and intimately mixed with a further 175 kg of the same animal feed for 8 minutes, whereupon a homogeneous, treated mixture is obtained, which contains valnemulin concentrations corresponding to the target dose of 100 ppm. Prior to further processing, samples of ca. 100 g each are taken from the upper, centre and lower part of the medicinal feed mixture, in order to test its homogeneity. In addition, further samples are taken randomly for use in stability tests. The finished, treated medicinal feed is now ready for pelleting. […] The 200 kg of finished medicinal feed is then fed continuously into the pelleting press of the feed mill over the course of ca. 20 mins. Afterwards, the pellets are dried in batches in a continuous stream of air, and cooled. To examine the homogeneity of the pelleted medicinal feed, several samples of ca. 100 g each are taken at the start, middle and end of the pelleting process. In addition, samples are taken in a random order from each batch, in order to test the stability in storage. […] In the following table 1, by way of example, the stabilities of different acid addition salts of valnemulin in the pelleting procedure for the animal feed are compared.

[2] = Stability of valnemulin during production and storage of feed pellets (background statements); format: physicochemical
From the text: It has been shown that valnemulin is rather unstable when producing pelleted feed, particularly when in contact with the feed material, especially constituents of vegetable or animal origin. This leads to substantial losses already at the preparation stage. In the preparation of pelleted feed, the dried organic starting material of animal or vegetable origin is ground, mixed intimately with the admixtures, vitamins, trace elements and other additives, i.e. substantially homogenized, and then optionally moistened with ca. 5 to 10% by weight water and compressed into feed pellets at elevated temperatures ranging from ca. 60 to 100° C. at pressures of ca. 1 to 100 kbar. Short-term, local temperature peaks in the press, so-called flashes, even reach 200° C. for a short time. The retention time of the mass in the press is generally from ca. 5 to 180 seconds and depends inter alia on the size of the pellets.
Whereas valnemulin in the form of the dried, amorphous hydrochloride salt withstands these temperatures for a short time without significant decomposition and can be stored at room temperature even for a few months without any measurable loss of active ingredient, this active ingredient decomposes relatively rapidly under pressure and in intimate contact with animal or vegetable feed constituents and at the prevailing elevated temperatures. […]

SMILES: C=C[C@]1(C)C[C@@H](OC(=O)CSC(C)(C)CNC(=O)[C@H](N)C(C)C)[C@]2(C)[C@H](C)CC[C@]3(CCC(=O)[C@H]32)[C@@H](C)[C@@H]1O.O=C(O)/C=C/C(=O)O [valnemulin hydrogen fumarate, Valnemulin Hydrogen Fumarate]
- Loss of active substance in the pelleting procedure, average loss [1]: 0.2%

SMILES: C=CC1(C)CC(OC(=O)CSC(C)(C)CNC(=O)C(N)C(C)C)C2(C)C(C)CCC3(CCC(=O)C32)C(C)C1O.O=C(O)C(O)C(O)C(=O)O [valnemulin D-hydrogen tartrate, Valnemulin D-Hydrogen Tartrate]
- Loss of active substance in the pelleting procedure, average loss [1]: 0.3%

SMILES: C=C[C@]1(C)C[C@@H](OC(=O)CSC(C)(C)CNC(=O)C(N)C(C)C)[C@]2(C)C(C)CC[C@]3(CCC(=O)C32)[C@@H](C)[C@@H]1O (some centres unmarked) [valnemulin, Valnemulin]
- content of active ingredient in finished pellets on storage ([2]; finished pellets, room temperature, after three months): below 60%
- active ingredient lost in compression into feed pellets ([2]; raised pressure and elevated temperature kept as short as possible, pellets immediately cooled to room temperature, contact with feed constituents): one quarter to one third

SMILES: C=C[C@]1(C)C[C@@H](OC(=O)CSC(C)(C)CNC(=O)[C@H](N)C(C)C)[C@]2(C)[C@H](C)CC[C@]3(CCC(=O)[C@H]32)[C@@H](C)[C@@H]1O [valnemulin hydrochloride]
- Loss of active substance in the pelleting procedure, average loss [1]: 11.6%
